Laboratory results as given in PubChem BioAssay AID1745844 (Carcinogenic Potency Database (CPDB), 2022).
Values joined by “and” are separate entries in the source; they are usually repeats but may differ in a detail not shown here. Equal entries are not always repeated. Active and inactive are the calls of the source. The rule behind the calls is not given here.

Test system: rodent lifetime carcinogenesis bioassay, tumor incidence TD50
Assay: chronic cancer bioassays in animals – CPDB, compiled studies (AID 1745844)
[1] = rat, strain Sprague-Dawley, females, in feed, site: mammary tissue, wider than the gland, lesion: malignant tumor, dosed 104 weeks, study length 104 weeks

How did the TD50 (mouse, strain B6C3F1, females, in feed, site: Harderian gland, lesion: adenoma, NOS, dosed 78 weeks, study length 95 weeks) turn out when [O-]/[N+](=N\O)c1ccccc1 was run?
The TD50 was 1270 mg/kg/day.

And the TD50 (mouse, strain B6C3F1, females, in feed, site: Zymbal's gland, lesion: sebaceous adenocarcinoma + squamous-cell carcinoma, dosed 78 weeks, study length 95 weeks)?
The TD50 was 3930 mg/kg/day.

What about the TD50 (mouse, strain B6C3F1, females, in feed, site: all sites + Harderian gland + liver + Zymbal's gland, lesion: hemangioma + hemangiosarcoma + adenoma, NOS + hepatocellular adenoma + hepatocellular carcinoma + sebaceous adenocarcinoma + squamou, dosed 78 weeks, study length 95 weeks) of the same compound?
Its TD50 is 253 mg/kg/day.

What about the TD50 (mouse, strain B6C3F1, females, in feed, site: all sites, lesion: hemangioma + hemangiosarcoma, dosed 78 weeks, study length 95 weeks) of the same compound?
Its TD50 is 419 mg/kg/day.

And the TD50 (mouse, strain B6C3F1, females, in feed, site: all sites, lesion: hemangiosarcoma, dosed 78 weeks, study length 95 weeks)?
Its TD50 is 1330 mg/kg/day.

What about the TD50 (mouse, strain B6C3F1, females, in feed, site: any site (literature study), lesion: several types, types named in the paper, dosed 78 weeks, study length 95 weeks) of the same compound?
The TD50 was 211 mg/kg/day.

What about the TD50 (mouse, strain B6C3F1, females, in feed, site: liver, lesion: hepatocellular adenoma + hepatocellular carcinoma + neoplastic nodule, dosed 78 weeks, study length 95 weeks) of the same compound?
The TD50 was 413 mg/kg/day.

What about the TD50 (mouse, strain B6C3F1, females, in feed, site: liver, lesion: hepatocellular adenoma + hepatocellular carcinoma, dosed 78 weeks, study length 95 weeks) of the same compound?
Its TD50 is 413 mg/kg/day.

What about the TD50 (mouse, strain B6C3F1, females, in feed, site: liver, lesion: hepatocellular carcinoma, dosed 78 weeks, study length 95 weeks) of the same compound?
Its TD50 is 564 mg/kg/day.

And the TD50 (mouse, strain B6C3F1, females, in feed, site: lung, lesion: alveolar/bronchiolar adenoma + alveolar/bronchiolar carcinoma, dosed 78 weeks, study length 95 weeks)?
The TD50 was 798 mg/kg/day.

What about the TD50 (mouse, strain B6C3F1, males, in feed, site: Harderian gland, lesion: adenoma, NOS, dosed 78 weeks, study length 95 weeks) of the same compound?
Its TD50 is 1040 mg/kg/day.

And the TD50 (mouse, strain B6C3F1, males, in feed, site: all sites, lesion: hemangiosarcoma, dosed 78 weeks, study length 95 weeks)?
The TD50 was 1000 mg/kg/day.

And the TD50 (mouse, strain B6C3F1, males, in feed, site: any site (literature study), lesion: several types, types named in the paper, dosed 78 weeks, study length 95 weeks)?
Its TD50 is 252 mg/kg/day.

And the TD50 (mouse, strain B6C3F1, males, in feed, site: liver, lesion: hepatocellular adenoma + hepatocellular carcinoma + neoplastic nodule, dosed 78 weeks, study length 95 weeks)?
Its TD50 is 5450 mg/kg/day.

And the TD50 (mouse, strain B6C3F1, males, in feed, site: lung, lesion: alveolar/bronchiolar adenoma + alveolar/bronchiolar carcinoma, dosed 78 weeks, study length 95 weeks)?
Its TD50 is 2390 mg/kg/day.

What about the TD50 (rat, strain Fischer 344, females, in feed, site: Zymbal's gland, lesion: ceruminous carcinoma + squamous-cell carcinoma, dosed 78 weeks, study length 106 weeks) of the same compound?
The TD50 was 171 mg/kg/day.

What about the TD50 (rat, strain Fischer 344, females, in feed, site: all sites + liver + stomach + Zymbal's gland, lesion: hemangiosarcoma + hepatocellular carcinoma + neoplastic nodule + squamous-cell carcinoma + squamous-cell papilloma + ceruminous ca, dosed 78 weeks, study length 106 weeks) of the same compound?
The TD50 was 14.1 mg/kg/day.

And the TD50 (rat, strain Fischer 344, females, in feed, site: all sites, lesion: hemangiosarcoma, dosed 78 weeks, study length 106 weeks)?
Its TD50 is 17.4 mg/kg/day.

And the TD50 (rat, strain Fischer 344, females, in feed, site: any site (literature study), lesion: several types, types named in the paper, dosed 78 weeks, study length 106 weeks)?
The TD50 was 11.2 mg/kg/day.

And the TD50 (rat, strain Fischer 344, females, in feed, site: liver, lesion: hepatocellular adenoma + hepatocellular carcinoma + neoplastic nodule, dosed 78 weeks, study length 106 weeks)?
The TD50 was 17.7 mg/kg/day.

What about the TD50 (rat, strain Fischer 344, females, in feed, site: liver, lesion: hepatocellular carcinoma + neoplastic nodule, dosed 78 weeks, study length 106 weeks) of the same compound?
Its TD50 is 17.7 mg/kg/day.

What about the TD50 (rat, strain Fischer 344, females, in feed, site: liver, lesion: hepatocellular carcinoma, dosed 78 weeks, study length 106 weeks) of the same compound?
The TD50 was 20.1 mg/kg/day.

And the TD50 (rat, strain Fischer 344, females, in feed, site: stomach, lesion: squamous-cell carcinoma + squamous-cell papilloma, dosed 78 weeks, study length 106 weeks)?
Its TD50 is 27.8 mg/kg/day.

And the TD50 (rat, strain Fischer 344, females, in feed, site: stomach, lesion: squamous-cell carcinoma, dosed 78 weeks, study length 106 weeks)?
Its TD50 is 31.3 mg/kg/day.

And the TD50 (rat, strain Fischer 344, males, in feed, site: all sites + liver + stomach, lesion: hemangiosarcoma + hepatocellular carcinoma + neoplastic nodule + squamous-cell carcinoma + squamous-cell papilloma, dosed 78 weeks, study length 105 weeks)?
The TD50 was 5.33 mg/kg/day.

And the TD50 (rat, strain Fischer 344, males, in feed, site: all sites, lesion: hemangiosarcoma, dosed 78 weeks, study length 105 weeks)?
The TD50 was 5.49 mg/kg/day.

And the TD50 (rat, strain Fischer 344, males, in feed, site: any site (literature study), lesion: several types, types named in the paper, dosed 78 weeks, study length 105 weeks)?
Its TD50 is 8.85 mg/kg/day.

And the TD50 (rat, strain Fischer 344, males, in feed, site: body cavities, lesion: mesothelioma, NOS + mesothelioma, dosed 78 weeks, study length 105 weeks)?
The TD50 was 139 mg/kg/day.

What about the TD50 (rat, strain Fischer 344, males, in feed, site: liver, lesion: hepatocellular adenoma + hepatocellular carcinoma + neoplastic nodule, dosed 78 weeks, study length 105 weeks) of the same compound?
Its TD50 is 9.28 mg/kg/day.

And the TD50 (rat, strain Fischer 344, males, in feed, site: liver, lesion: hepatocellular carcinoma + neoplastic nodule, dosed 78 weeks, study length 105 weeks)?
The TD50 was 9.28 mg/kg/day.

What about the TD50 (rat, strain Fischer 344, males, in feed, site: liver, lesion: hepatocellular carcinoma, dosed 78 weeks, study length 105 weeks) of the same compound?
The TD50 was 30.7 mg/kg/day.

And the TD50 (rat, strain Fischer 344, males, in feed, site: stomach, lesion: squamous-cell carcinoma + squamous-cell papilloma, dosed 78 weeks, study length 105 weeks)?
Its TD50 is 6.28 mg/kg/day.

What about the TD50 (rat, strain Fischer 344, males, in feed, site: stomach, lesion: squamous-cell carcinoma, dosed 78 weeks, study length 105 weeks) of the same compound?
Its TD50 is 6.94 mg/kg/day.

What about the TD50 (rat, strain Fischer 344, males, in feed, site: subcutaneous tissue, lesion: fibroma, dosed 78 weeks, study length 105 weeks) of the same compound?
The TD50 was 10.5 mg/kg/day.

Which results are given for CC(C)C(C(=O)OC(C#N)c1cccc(Oc2ccccc2)c1)c1ccc(Cl)cc1 (stereo unspecified)?
TD50 (mouse, strain B6C3F1, females, in feed, site: any site (literature study), lesion: one or several types, types not named, dosed 104 weeks, study length 104 weeks): 173 mg/kg/day (inactive); carcinogen call (mouse, strain B6C3F1, females, in feed, site: liver, lesion: hepatocellular adenoma, dosed 104 weeks, study length 104 weeks): negative (inactive); carcinogen call (mouse, strain B6C3F1, females, in feed, site: liver, lesion: hepatocellular carcinoma, dosed 104 weeks, study length 104 weeks): negative (inactive); carcinogen call (mouse, strain B6C3F1, females, in feed, site: lung, lesion: bronchiolar adenoma, dosed 104 weeks, study length 104 weeks): negative (inactive); carcinogen call (mouse, strain B6C3F1, females, in feed, site: lung, lesion: bronchogenic carcinoma, dosed 104 weeks, study length 104 weeks): negative (inactive); TD50 (mouse, strain B6C3F1, males, in feed, site: any site (literature study), lesion: one or several types, types not named, dosed 104 weeks, study length 104 weeks): 251 mg/kg/day (inactive); carcinogen call (mouse, strain B6C3F1, males, in feed, site: liver, lesion: hepatocellular adenoma, dosed 104 weeks, study length 104 weeks): negative (inactive); carcinogen call (mouse, strain B6C3F1, males, in feed, site: liver, lesion: hepatocellular carcinoma, dosed 104 weeks, study length 104 weeks): negative (inactive); carcinogen call (mouse, strain B6C3F1, males, in feed, site: lung, lesion: bronchiolar adenoma, dosed 104 weeks, study length 104 weeks): negative (inactive); carcinogen call (mouse, strain B6C3F1, males, in feed, site: lung, lesion: bronchogenic carcinoma, dosed 104 weeks, study length 104 weeks): negative (inactive); carcinogen call (mouse, strain B6C3F1, males, in feed, site: skin, lesion: fibrosarcoma, dosed 104 weeks, study length 104 weeks): negative (inactive); TD50 (mouse, strain C57BL/6, females, by gavage, site: all sites, lesion: lymphoma, dosed 104 weeks, study length 114 weeks): 384 mg/kg/day (inactive); TD50 (mouse, strain C57BL/6, females, by gavage, site: any site (literature study), lesion: one or several types, types not named, dosed 104 weeks, study length 114 weeks): 435 mg/kg/day (inactive); carcinogen call (mouse, strain C57BL/6, females, by gavage, site: liver, lesion: liver-cell tumor, dosed 104 weeks, study length 114 weeks): negative (inactive); carcinogen call (mouse, strain C57BL/6, females, by gavage, site: lung, lesion: adenoma, dosed 104 weeks, study length 114 weeks): negative (inactive); TD50 (mouse, strain C57BL/6, males, by gavage, site: all sites, lesion: lymphoma, dosed 104 weeks, study length 114 weeks): 659 mg/kg/day (inactive); carcinogen call (mouse, strain C57BL/6, males, by gavage, site: any site (literature study), lesion: one or several types, types not named, dosed 104 weeks, study length 114 weeks): negative (inactive); TD50 (mouse, strain C57BL/6, males, by gavage, site: liver, lesion: liver-cell tumor, dosed 104 weeks, study length 114 weeks): 328 mg/kg/day (inactive); carcinogen call (mouse, strain C57BL/6, males, by gavage, site: lung, lesion: adenoma, dosed 104 weeks, study length 114 weeks): negative (inactive); carcinogen call (rat, strain Sprague-Dawley, females, in feed, site: liver, lesion: round-cell sarcoma, dosed 104 weeks, study length 104 weeks): negative (inactive); TD50 (rat, strain Sprague-Dawley, females, in feed, site: mammary gland, lesion: fibroadenoma, dosed 104 weeks, study length 104 weeks): 58 mg/kg/day (inactive); TD50 (rat, strain Sprague-Dawley, females, in feed, site: mammary gland, lesion: fibroma, dosed 104 weeks, study length 104 weeks): 2.55 mg/kg/day (inactive); TD50 (rat, strain Sprague-Dawley, females, in feed, site: mammary tissue, wider than the gland, lesion: benign tumor, dosed 104 weeks, study length 104 weeks): 43.7 mg/kg/day (inactive) and 247 mg/kg/day (inactive); TD50 [1]: 150 mg/kg/day (inactive); carcinogen call [1]: negative (inactive); TD50 (rat, strain Sprague-Dawley, males, in feed, site: subcutaneous tissue, lesion: fibrosarcoma, dosed 104 weeks, study length 104 weeks): 5.04 mg/kg/day (inactive); TD50 (rat, strain Sprague-Dawley, males, in feed, site: subcutaneous tissue, lesion: spindle-cell sarcoma, dosed 104 weeks, study length 104 weeks): 266 mg/kg/day (inactive)

Which results are given for OCCOCCO?
carcinogen call (rat, strain F344/DuCrj, females, in drinking water, site: any site (literature study), lesion: several types, types named in the paper, dosed 108 weeks, study length 108 weeks): negative (inactive); carcinogen call (rat, strain F344/DuCrj, females, in drinking water, site: liver, lesion: neoplastic nodule, dosed 108 weeks, study length 108 weeks): negative (inactive); carcinogen call (rat, strain F344/DuCrj, males, in drinking water, site: any site (literature study), lesion: several types, types named in the paper, dosed 108 weeks, study length 108 weeks): negative (inactive); TD50 (rat, strain F344/DuCrj, males, in drinking water, site: liver, lesion: neoplastic nodule, dosed 108 weeks, study length 108 weeks): 34200 mg/kg/day (inactive); TD50 (rat, strain Osborne-Mendel, males, in feed, site: urinary bladder, lesion: several types, types named in the paper, dosed 104 weeks, study length 104 weeks): 1660 mg/kg/day
